Data: publication PMC4128046, “Effect of a toggle switch mutation in TM6 of the human adenosine A3 receptor on Gi protein-dependent signalling and Gi-independent receptor internalization” (British Journal of Pharmacology, 2014)
Substitutions are numbered along the chain they refer to. Read-outs that look alike come from different tables or passages of the source.

Key:
Assay type in all cases: cell-based
[1] = biological target: T1, human A3 receptor fused to YFP (A3-YFP) (Homo sapiens, UniProt P0DMS8); assay: Automated imaging of receptor internalization (granularity analysis), A3-YFP; details: for Maximal internalization (%): percentage of internalization with 10 μM NECA in the cell line
T1 construct: cDNA encoding the full length human A3 receptor; expressed in transfected cells
T1 sequence (P0DMS8 1-318): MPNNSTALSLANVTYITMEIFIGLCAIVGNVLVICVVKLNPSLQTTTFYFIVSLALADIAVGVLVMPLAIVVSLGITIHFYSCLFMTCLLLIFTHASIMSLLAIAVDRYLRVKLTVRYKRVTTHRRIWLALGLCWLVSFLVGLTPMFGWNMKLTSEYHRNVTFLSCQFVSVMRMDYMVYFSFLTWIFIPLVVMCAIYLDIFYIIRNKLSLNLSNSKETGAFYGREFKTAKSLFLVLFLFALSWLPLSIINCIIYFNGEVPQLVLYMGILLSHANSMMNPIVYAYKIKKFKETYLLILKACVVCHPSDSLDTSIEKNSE
Description: (§1) Immediately before experimentation, normal growth medium was replaced with serum-free medium. […] Medium was removed and cells were washed once in PBS. […] Images were obtained using an ImageXpress Ultra confocal plate reader (Molecular Devices, Sunnyvale, CA, USA). Four central images were obtained per well using a Plan Fluor 40x NA0.6 extra-long working distance objective. BiFC and YFP images were obtained by excitation with a 488 nm laser line with emission collected through a 525-550 nm band pass filter and H33342 images obtained by excitation with a 405 nm laser line and emission collected through a 447-460 nm band pass filter. Granularity analysis was performed on the resulting images using a granularity algorithm within MetaXpress software (Molecular Devices, Sunnyvale, CA, USA) and intensity above background was set for each individual experiment (Kilpatrick et al., [2010]). Areas of internalized receptors were identified by granularity analysis; granules were defined as having a diameter of between 7 and 15 μm and nuclei as having a diameter of between 6 and 9 μm, resulting in a measurement of the granule count per cell for each image. A basal and FSK control was included in each separate concentration-response CRE-SPAP gene transcription assay and cAMP accumulation assay to allow the responses in each cell line to be expressed as an inhibition of FSK-stimulated SPAP production. […] All data were fitted using non-linear regression in Prism 5 (GraphPad Software, San Diego, CA, USA). […] Statistical significance was determined by Student's unpaired t-test or by one-way ANOVA with Dunnett's post hoc analysis and P < 0.05 was considered statistically significant.

[2] = biological target: T2, human A3 receptor W243F mutant fused to YFP (A3 W243F-YFP) (Homo sapiens, UniProt P0DMS8, W243F); assay: Automated imaging of receptor internalization (granularity analysis), A3 W243F-YFP; details: A3 W243F-YFP cells
T2 construct: Full length A3 W243F-YFP was excised and subcloned into a native pcDNA3.1 vector; expressed in transfected cells
T2 sequence (P0DMS8 1-318 W243F): T1 sequence (P0DMS8 1-318) with W243F
Description: as §1

A3-YFP [3] = biological target: T3, A3-YFP (Homo sapiens, UniProt P0DMS8); assay: ERK1/2 phosphorylation assay (AlphaScreen SureFire), A3-YFP; details: for Emax: read-out: Maximum response (% 10 μM NECA), pERK1/2 assay
T3 construct: cDNA encoding the full length human A3 receptor; expressed in transfected cells
T3 sequence (P0DMS8 1-318): T1 sequence (P0DMS8 1-318)
Experimental: Normal growth medium was replaced with serum-free medium for at least 4 h before analysis. Levels of ERK1/2 phosphorylation were measured using the AlphaScreen SureFire p-ERK assay kit (PerkinElmer). […] Medium was removed from each well and replaced with 40 μL SureFire lysis buffer. After shaking for 5 min, a 1:80:20:120 v v^−1 dilution of AlphaScreen beads : lysate : activation buffer : reaction buffer in a 5.5 μL total volume was transferred to a white opaque 384-well proxiplate in diminished light. After 2 h of incubation in the dark at room temperature, the fluorescence signal was measured with an EnVision plate reader (PerkinElmer) using standard AlphaScreen settings.
(§2) A basal and FSK control was included in each separate concentration-response CRE-SPAP gene transcription assay and cAMP accumulation assay to allow the responses in each cell line to be expressed as an inhibition of FSK-stimulated SPAP production.

A3-YFP [4] = biological target: T3, A3-YFP; assay: CRE-SPAP gene transcription assay, A3-YFP; details: A3-YFP cells; for agonist-mediated inhibition of SPAP production after PTx pre-incubation: PTx 100 ng·mL−1 overnight, 3 μM FSK; for Emax: read-out: Maximum response (% inhibition of 10 μM FSK), CRE-SPAP assay
Experimental: One day before analysis, normal growth medium was removed from the cells and replaced with serum-free medium (DMEM/F12 containing 2 mM L-glutamine). Where applicable, PTx (100 ng·mL^−1) was added at this stage. On the day of the assay, the medium was removed and replaced with fresh serum-free medium containing the required concentration of the agonist, and cells were incubated for 1 h at 37°C/5% CO2. After 1 h, the required concentration of forskolin (FSK) was added, and cells were incubated for a further 5 h at 37°C/5% CO2. Following the 5 h incubation, all medium was removed from the cells, 40 μL of fresh serum-free medium was added to each well and cells incubated for a further 1 h at 37°C/5% CO2. The plates were then incubated at 65°C for 30 min, to destroy any endogenous alkaline phosphatases.
as §2

Row | Compound | EC50 ([1]; A3-YFP CHO CRE-SPAP cells, 45 min, granule count per cell, read-out: pEC50 (internalization) (converted)) [nM] | EC50 ([1]; A3-YFP cells, PTx 100 ng·mL−1 overnight, read-out: pEC50 (internalization) in the presence of PTx (converted)) [nM] | decrease in the maximal levels of internalization in the presence of PTx ([1]; A3-YFP cells, PTx pretreatment, reduction vs. 10 μM NECA internalization) [%] | Maximal internalization (%) ([1]; A3-YFP cells) | effect of pretreatment on NECA-mediated internalization ([2]; 10 μM HEMADO 30 min before NECA 45 min) | accumulation of internalized receptor after 2 h stimulation ([2]; 10 μM agonist, 2 h) | EC50 (A3-YFP [3]; A3-YFP cells, 5 min stimulation, read-out: pEC50 (pERK1/2 assay) (converted)) [nM] | Emax (A3-YFP [3]) [%] | EC50 (A3-YFP [4]; 5 h with FSK, read-out: pEC50 (CRE-SPAP assay) (converted)) [nM] | agonist-mediated inhibition of SPAP production after PTx pre-incubation (A3-YFP [4]) | Emax (A3-YFP [4]) [%] | Maximal internalization (%) ([2]; percentage of internalization with 10 μM NECA in the cell line) | SPAP production in the absence of FSK (Gs coupling) (A3-YFP [4]; no FSK, with or without PTx)
1 | CCCCC#Cc1nc(NC)c2ncn([C@@H]3O[C@H](CO)[C@@H](O)[C@H]3O)c2n1 [HEMADO, 2-(1-hexynyl)-N-methyladenosine] | 245 | 282 | 30 ± 6 | 105.1±11.0 | virtually abolished | no accumulation of internalized receptor could be detected | 1.91 | 120 ± 5.8 | 3.02 | no HEMADO-mediated response was observed | 73.2 ± 7.7 | – | –
2 | CCNC(=O)[C@H]1O[C@@H](n2cnc3c(N)ncnc32)[C@H](O)[C@@H]1O [NECA, 5-(N-ethylcarboxamido)adenosine] | – | – | – | 100 | – | – | – | 100 | – | abolished | 65.8 ± 8.2 | 100 | no increase in SPAP production
